Results taken from patent US20230339991A1, “HYPOXIA-ACTIVATED DNA ALKYLATING AGENT AND MEDICAL USE THEREOF” (ASCENTAWITS PHARMACEUTICALS, LTD., priority 2020, published 2023).
Where “and” joins values, the source holds several entries; their conditions need not be identical. Equal values may be shown once.

How the values were obtained:
[1] = system: HuPrime pancreatic cancer PA3546 subcutaneous xenograft PDX tumor; experiment: PA3546 human pancreatic cancer subcutaneous PDX model; details: 120 mg/kg i.p. QW×3; Day 25
Description: BALB/c nude mice were subcutaneously inoculated with HuPrime® model PA3546 tumor blocks to establish human pancreatic cancer subcutaneous transplantation tumor model. […] Efficacy was evaluated according to the relative tumor inhibition rate TGI (%), and safety was evaluated according to the change in body weight and the death of animals.

P-gp = P-gp (Homo sapiens, UniProt P08183); experiment: P-gp substrate evaluation, MDCKII-MDR1 penetration test; details: dog; for Papp A→B at 2 h / Papp B→A at 2 h: MDCK-MDR1
Description: (1) MDCKII-MDR1 cells were cultured in the cell culture bottle. The conditions of the incubator were 37° C., 5% of CO2, and 95% of the relative humidity. When the cell growth confluence was up to 70-90%, the cells were inoculated to the transwell.
The cell suspension was transferred to the upper compartment of the 96-well transwell, wherein each upper compartment contains 50 μL of the cell suspension. The final inoculum density was 5.45×10^5 cells/cm^2.
(1) The transwell culture plate of the MDCKII-MDRT cells was taken out from the incubator. The cell monolayer membrane was rinsed two times with the buffer solution and incubated at 37° C. for 30 min.
(2) The transport rate that the compound was transported from the top-end to the base-end was tested. 75 μL of the buffer solution contained the sample was added to each upper compartment (top-end), and 235 μL of the buffer solution was added to each lower compartment (base-end).
(3) The transport rate that the compound was transported from the base-end to the top-end was tested. 75 μL of the buffer solution was added to each upper compartment (top-end), and 235 μL of the buffer solution contained the sample was added to each lower compartment (base-end).
(6) The upper and lower transits were merged up and then incubated at 37° C. for 2 h.
(7) After the incubation was finished, 50 μL of the samples from each well of the upper compartment and the lower compartment of the transwell culture plate were respectively added to new sample tubes. 200 μL of the acetonitrile containing the internal standard (100 nM Alprazolam, 200 nM Labetalol, 200 nM caffeine and 2 μM Ketoprofen) was added to each sample tube. After the sample tubes were vortexed for 10 min, they were centrifuged at 3220 g for 30 min. 100 μL of the supernatant was taken and diluted with the same volume of the water to perform the LC-MS/MS analysis. Each sample was adopted to the three parallel incubation.
The peak area was calculated by the result of the ion chromatography. The permeability coefficient (Papp, unit: cm/s×10^−6) of the compound was calculated by the formula: […]
In the formula, “VA” refers to the volume of the solution on the acceptor (Ap→Bl was 0.235 mL, and Bl→Ap was 0.075 mL), “Area” refers to the area of the permeable membrane of the 96-well transwell (0.143 cm^2), “time” refers to the incubation time (in second), “[drug]acceptor” refers to the drug concentration of the acceptor after the incubation, and “[drug]initial, donor” refers to the initial concentration of the drug administration before the incubation.
The efflux ratio was calculated by the following formula: […]
In the formula, “Papp (B-A)” refers to the permeability coefficient from the base-end to the top-end, and the term “Papp (A-B)” refers to the permeability coefficient from the top-end to the base-end.
The recovery was calculated by the following formula: […]
In the formula, “VA” refers to the volume of the solution on the acceptor (mL), “VD” refers to the volume of the solution on the donor (mL), “[drug]acceptor” refers to the drug concentration of the acceptor after the incubation, “[drug]donor” refers to the drug concentration of the donor after the incubation, and the term “[drug]initial, donor” refers to the initial concentration of the drug administration before the incubation.

[2] = system: human lung cancer NCI-H460 subcutaneous xenograft; experiment: Human lung cancer NCI-H460 subcutaneous xenograft model, compounds B and C; type: in vivo, BALB/c nude mice
Description: BALB/c nude mice were subcutaneously inoculated with human lung cancer NCI-H460 cells to establish human lung cancer subcutaneous transplantation tumor model. […] The positive drug Irinotecan 40 mg/kg group was administered by intraperitoneal injection once every 4 days for 7 times, and observed for 4 days.

Plasma stability, dog = details: Dog plasma; after 30 minutes
Description: (§1) The frozen plasma was immediately melted in a water bath of 37° C. The plasma was centrifuged at 3, 220 g for 10 minutes to remove the blood clots and the supernatant was collected into a new test tube. The pH of the plasma was checked and recorded. Note: a. Only plasma that has been melted no more than twice since arrival was used; b. Only plasma in the range of pH 7 to pH 8 was used.
(§2) 1 mM of working solutions of the test compound and the control compound mevinolin were prepared in DMSO. 1 mM of the working solution of the control compound solution in […] was prepared in acetonitrile. 4 μL of the working solution was added to 796 μL of pre-incubated plasma to achieve 5 μM of final concentration. The final concentration of solvent was 0.5%.
(§3) The aliquots of 50 μL of the standard addition plasma were added to new test tubes and incubated in the water bath of 37° C. at approximately 60 rpm for 2 hours. The assay is performed in duplicate. At the end of the two hour incubation, 300 μL of quenched solution at room temperature (acetonitrile containing internal standards (acetonitrile, 100 nM Alprazolam, 500 nM Labetalol and 2 μM ketoprofen)) was added to terminate the reaction. Samples at time 0 were prepared by adding 50 μL of standard addition plasma to the new test tubes with 300 μL of quenched solution at room temperature. The test tubes were mixed by vortex for 5 minutes. The samples in the plates were centrifuged at 3, 220×g for 30 minutes at 4° C. to precipitate the proteins. 100 μL of supernatant was transferred to a new plate. The supernatant was diluted with 100 μL of water, mixed well and analysed using LC-MS/MS.

Plasma stability, rat = details: Rat plasma; after 30 minutes
Description: as §1, §2
as §3, with “The aliquots of 50 μL of the standard addition plasma were added to new test tubes and incubated in the water bath of 37° C. at approximately 60 rpm for 2 hours.” left out

[3] = system: human lung cancer NCI-H460-Luc2 intracranial transplantation tumor; details: 20 mg/kg i.p. QW×3; 11 days after grouping
Description: BALB/c nude mice were inoculated intracranially with human lung cancer NCI-H460-Luc2 cells to establish human lung cancer intracranial transplantation tumor model. […] The relative tumor inhibition rate TGI (%) was calculated based on tumor biofluorescence value and the efficacy was evaluated.

Plasma stability, mouse = type: in vitro ADME; details: Mouse plasma; after 30 minutes
Description: (§4) The pH of the plasma was checked and recorded. Note: a.
(§5) The final concentration of solvent was 0.5%.
(§6) The assay is performed in duplicate.

Plasma stability, human = type: in vitro ADME; details: Human plasma; after 30 minutes; 5 μM; 37° C.
Description: as §4, §5, §6

Plasma stability, monkey = type: in vitro ADME; details: Monkey plasma; after 30 minutes
Description: as §4, §5, §6

[4] = system: human liver cancer HepG2 subcutaneous xenograft; experiment: Human liver cancer HepG2 subcutaneous xenograft model; type: in vivo, BALB/c nude mice
Source text: BALB/c nude mice were subcutaneously inoculated with human liver cancer HepG2 cells to establish human liver cancer subcutaneous transplantation tumor model.

mice = details: prior literature WO2016210175A1, CN108024974A; cited from earlier work
[5] = MDCK-MDR1, Recovery (%) AP-BL, verapamil 0 μM
[6] = MDCK-MDR1, Recovery (%) BL-AP, verapamil 0 μM
[7] = MDCK-MDR1, with verapamil 100 μM (in donor and acceptor buffer), Recovery (%) AP-BL, verapamil 100 μM
[8] = MDCK-MDR1, with verapamil 100 μM (in donor and acceptor buffer), Recovery (%) BL-AP, verapamil 100 μM

P-gp, sequence (P08183 whole entry): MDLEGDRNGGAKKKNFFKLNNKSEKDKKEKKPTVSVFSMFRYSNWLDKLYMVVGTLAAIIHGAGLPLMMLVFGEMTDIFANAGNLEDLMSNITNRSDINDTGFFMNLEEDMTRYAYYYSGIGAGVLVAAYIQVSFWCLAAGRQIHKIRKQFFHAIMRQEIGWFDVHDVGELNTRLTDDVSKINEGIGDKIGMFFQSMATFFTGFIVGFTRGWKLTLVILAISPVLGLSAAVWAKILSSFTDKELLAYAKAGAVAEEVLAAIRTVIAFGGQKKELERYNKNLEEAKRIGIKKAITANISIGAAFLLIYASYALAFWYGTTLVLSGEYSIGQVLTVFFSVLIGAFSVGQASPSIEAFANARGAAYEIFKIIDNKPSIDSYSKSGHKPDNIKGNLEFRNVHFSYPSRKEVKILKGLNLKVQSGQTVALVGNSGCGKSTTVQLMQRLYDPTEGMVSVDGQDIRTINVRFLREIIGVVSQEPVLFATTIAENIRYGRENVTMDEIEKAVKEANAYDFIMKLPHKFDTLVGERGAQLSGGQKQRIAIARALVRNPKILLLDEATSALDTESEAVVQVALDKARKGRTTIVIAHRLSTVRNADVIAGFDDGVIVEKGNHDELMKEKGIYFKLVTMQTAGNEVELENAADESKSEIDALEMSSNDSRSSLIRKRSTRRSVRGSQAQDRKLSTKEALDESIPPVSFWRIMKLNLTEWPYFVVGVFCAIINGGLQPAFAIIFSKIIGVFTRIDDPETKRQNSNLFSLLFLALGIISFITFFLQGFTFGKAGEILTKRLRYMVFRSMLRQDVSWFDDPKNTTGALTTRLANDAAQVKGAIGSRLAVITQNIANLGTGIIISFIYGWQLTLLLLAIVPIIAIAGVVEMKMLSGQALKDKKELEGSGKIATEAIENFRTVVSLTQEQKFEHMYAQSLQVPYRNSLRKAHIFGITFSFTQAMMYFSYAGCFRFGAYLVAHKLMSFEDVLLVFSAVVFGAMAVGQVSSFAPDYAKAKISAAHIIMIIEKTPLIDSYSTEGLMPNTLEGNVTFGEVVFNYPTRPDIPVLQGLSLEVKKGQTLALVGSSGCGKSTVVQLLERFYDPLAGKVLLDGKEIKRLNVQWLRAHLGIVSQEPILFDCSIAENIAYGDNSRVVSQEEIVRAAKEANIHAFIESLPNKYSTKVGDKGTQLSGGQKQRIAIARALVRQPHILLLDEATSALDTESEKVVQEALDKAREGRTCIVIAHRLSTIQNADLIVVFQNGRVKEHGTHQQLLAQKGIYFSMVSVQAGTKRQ

For `Nc1ccn([C@@H]2O[C@H](CO)[C@@H](O)C2(F)F)c(=O)n1` [Gemcitabine, reference compound], the “relative tumor inhibition rate TGI (%)” value [1] was 45.31%.
Compound `Cc1ccc(NC(=O)c2ccc(CN3CCN(C)CC3)cc2)cc1Nc1nccc(-c2cccnc2)n1` [Imatinib] has a Papp A→B at 2 h (P-gp) of 1.89 ×10⁻⁶ cm/s, a Papp B→A at 2 h (P-gp) of 30.5 ×10⁻⁶ cm/s and a recovery at 2 h (P-gp; [5]) of 79%. The recovery at 2 h (P-gp; [6]) was 63.4%, the recovery at 2 h (P-gp; [7]) was 83% and the recovery at 2 h (P-gp; [8]) was 87.6%.
With `CCc1c2c(nc3ccc(OC(=O)N4CCC(N5CCCCC5)CC4)cc13)-c1cc3c(c(=O)n1C2)COC(=O)[C@]3(O)CC` [Irinotecan, reference compound] the “relative tumor inhibition rate TGI (%)” value ([2]; 40 mg/kg, Q4D×7, i.p., day 28) was 79.03% and the “drug toxicity (weight loss / death)” value ([2]; at the tested dosage) was “a certain drug toxicity”.
In the case of `CC[C@H](C)C(=O)O[C@H]1C[C@@H](C)C=C2C=C[C@H](C)[C@H](CC[C@@H]3C[C@@H](O)CC(=O)O3)[C@H]21` [Lovastatin, reference compound], the Remaining percentage (Plasma stability, dog) is reported as 58.73% and the Remaining percentage (Plasma stability, rat) is reported as 0.21% and 0.19%.
Work on `COCCc1ccc(OCC(O)CNC(C)C)cc1` (centres unmarked) [Metoprolol] yielded a Papp A→B at 2 h (P-gp) of 27.6 ×10⁻⁶ cm/s, a Papp B→A at 2 h (P-gp) of 26.5 ×10⁻⁶ cm/s and a recovery at 2 h (P-gp; [5]) of 96.2%. The recovery at 2 h (P-gp; [6]) was 98.5%.
For `CC(=O)O[C@H]1C(=O)[C@@]2(C)[C@H]([C@H](OC(=O)c3ccccc3)[C@]3(O)C[C@H](OC(=O)[C@H](O)[C@@H](NC(=O)c4ccccc4)c4ccccc4)C(C)=C1C3(C)C)[C@]1(OC(C)=O)CO[C@@H]1C[C@@H]2O` [Paclitaxel, reference compound], the mean biofluorescence value [3] was 4184.52 E+05 photon/second.
With `CC(C)[N+](C)(CCOC(=O)C1c2ccccc2Oc2ccccc21)C(C)C` [Propanthine, reference compound] the Remaining percentage (Plasma stability, mouse) was 1.98%, the Remaining percentage (Plasma stability, human) was 0.07% and 3.32% and the Remaining percentage (Plasma stability, monkey) was 54.38%.
For `CNC(=O)c1cc(Oc2ccc(NC(=O)Nc3ccc(Cl)c(C(F)(F)F)c3)cc2)ccn1` [Sorafenib, reference compound], the cure rate ([4]; 30 mg/kg (Group 2)) was 20% and the “relative tumor inhibition rate TGI (%)” value ([4]; 30 mg/kg, QD×21 Days, intragastric, Day 45) was 48.11%.
In the case of `C[C@@H](OP(=O)(N1CC1)N1CC1)c1ccc([N+](=O)[O-])cc1` [TH2565], the “MTD Result” value (mice) is given as 2 mg/kg.
In the case of `C[C@H](OP(=O)(N1CC1)N1CC1)c1ccc([N+](=O)[O-])cc1` [TH2566], the “MTD Result” value (mice) is given as 2 mg/kg.
Compound `COc1cc2nc(N3CCN(C(=O)c4ccco4)CC3)nc(N)c2cc1OC` [prazosin] has a Papp A→B at 2 h (P-gp) of 11 ×10⁻⁶ cm/s, a Papp B→A at 2 h (P-gp) of 31.8 ×10⁻⁶ cm/s and a recovery at 2 h (P-gp; [5]) of 90.7%. The recovery at 2 h (P-gp; [6]) was 78.5%, the recovery at 2 h (P-gp; [7]) was 94.2% and the recovery at 2 h (P-gp; [8]) was 88.5%.
